Key:
fibroblasts = assay: Fibroblasts cultured in monolayer: cell count and MTT viability test; type: cell-based, human
From the text: The support of the reconstructed skin model is constituted by a dermal substrate (DS) with a base of collagen-glycosaminoglycan cross-linked by chitosan according to the technique published by Duplan-Perrat et al (J Invest Dermatol 2000 114:365). Fibroblasts are inoculated the inside of the DS in order to obtain an equivalent dermis. The reconstituted skin (RS) is obtained by inoculating the keratinocytes after 15 days (day 15) of culture in equivalent dermis. The dermal fibroblasts are obtained from explants of human prepuces after dermal-epidermal separation and cultured in monolayer in DMEM medium (Sigma) supplemented by 10% fœtal calf serum, 4 mM L-glutamine, EGF (Austral Biologic) at 10 ng/ml, penicillin at 100 UI/ml, gentamicin at 100 μg/ml and amphotericin B at 1 μg/ml. The keratinocytes are from a human skin biopsy sample after dermal-epidermal separation by trypsination. The cells are inoculated nutritive layers (irradiated fibroblasts) and cultured in DMEM and HAM F12 at 30% supplemented with fœetal calf serum at 10%, EGF at 10 ng/ml, hydrocortisone at 1.6 ng/ml, umulin at 0.12 UI/ml, choleratoxin at 0.1 nM, triiodothyronine at 0.2 μM, adenine at 24 μg/ml, 4 mM L-Glutamine, penicillin at 100 UI/ml, gentamicin at 100 μg/ml and amphotericin B at 1 μg/ml.
In fact, the number of these cells is reduced by approximately 50% compared to the control when they are cultured in the presence of 600 μg/ml of βAPN. […] The results of the MTT viability test confirm those of the cell count. […] It must be emphasized that βAPN at 200 μg/ml can optionally cause an increase in cell activity (proliferation and viability) on the fibroblasts inoculated at a low density, and on the fibroblasts and the keratinocytes inoculated at a high density.

[1] = test system: normal human chondrocytes; assay: Normal human chondrocytes in 3D culture in collagen-GAG-chitosan sponge (immunofluorescence, histology); type: cell-based; conditions: 3D culture in sponge, three months
From the text: The chondrocytes obtained after ligamentoplasty have been used for the three-dimensional culture in collagen-GAG-chitosan sponge (Collombel et al. 1987)* in the presence or absence of BAPN (FIGS. 7 and 8). * Collombel C., Damour O., Gagneu C., Poinsignon F., Echinard C., Marichy J.: Peau artificielle et son procédé de fabrication. French Patent No. 87-08752 (15th Jun. 1987), European Patent No. 88-420194.8 (14th Jun. 1988).
Nevertheless, human chondrocytes dedifferentiated in terms of the period of culture necessary for their multiplication in culture on plastic, can advantageously be placed in three-dimensional (3D) culture in the presence of βAPN. The placing in 3D culture not being sufficient, in itself, to ensure a return to the cartilage phenotype lost during the 2-dimensional culture in the presence of serum, as was described for 3D cultures in agarose.
3 D culture in sponges of collagen-GAG-chitosan in the presence of serum and βAPN of normal human chondrocytes. The chondrocytes were previously multiplied, and dedifferentiated, in 2D culture on plastic.

[2] = test system: deep chondrocytes of the cotyloid ligament; assay: Human cotyloid cartilage chondrocytes in 2D culture on plastic; type: cell-based; conditions: hyaluronidase in extraction medium, two weeks, serum
From the text: b) The cultures of normal human chondrocytes originate from cartilages taken during hip prosthesis or ligamentoplasty surgery, then subjected to enzymatic digestion. These cartilage biopsies are considered as res nullus.
The chondrocytes extracted from the cotyloid ligament have been used for the two-dimensional culture on plastic in the presence of BAPN: the cultures obtained after enzymatic digestion of the cartilages in the presence or absence of hyaluronidase were compared (FIGS. 4 and 5).
The 24-hour radio-labellings with the 14C proline were carried out on the 2nd, 7th and 14th day of culture in the presence of serum and βAPN (day 2, day 7 and day 14 respectively). The pepsinated extracts of culture medium and cell lawn were subjected to electrophoresis then fluorography.
The superficial areas (even numbers) and deep areas (odd numbers) of the cotyloid cartilage were separated before being subjected to enzymatic digestion in the presence or absence of hyaluronidase.

[3] = test system: LOX, LOXL1 expression by chondrocytes; assay: Immunodecoration with anti LOX, LOXL1 antibodies of extracts of chondrocyte cell lawns and culture medium; type: cell-based, chicken; conditions: 6th or 14th day of culture
Method: The Lysyl oxidase activity was assayed with 300,000 dpm of labelled elastin on the Lysine, substrate of the enzyme (Shackelton and Hulmes Anal. Biochem. (1990) 185: 359-362). The determination of the presence of Lysyl oxidases in the cultures of chondrocytes is carried out according to the standard methods of immunodecoration of the supports onto which the bands separated from the proteins extracted from the corresponding culture media or from the cell lawns have been transferred.
The day before the samples are taken, the cell lawn is washed three times with medium without serum. The medium is then changed for 24 hours with complete medium without serum.
On the 6th or 14th day of culture the media are sampled and precipitated in a standard fashion with TCA 10% final/4° C./[…]. The centrifugation pellets are rinsed with acetone then solubilized in a 50 μl electrophoresis buffer. The rinsed cell lawns are lysed 2 hours/4° C. (300 μl/P35) in the mixture 8M urea, 0.5% Nonidet, 16 mM disodium phosphate pH 8 and protease inhibitors. […]
After separation by SDS PAGE and transfer by Western Blot, the protein bands are analyzed by immunodecoration using polyclonal anti-LOX and anti-LOXL1 antibodies from rabbits, then a second anti-rabbit antibody marked with alkaline phosphatase before development with the reagent NBT/BCIP (Roche Diagnostic GmBH, Mannheim, Germany).

Q: For `N#CCCN` [βAPN, β-aminopropionitrile], which “proliferation of the fibroblasts” value (fibroblasts; 200 μg/ml) is on record?
A: slightly increased

Q: What about the “effect on the viability and the multiplication” value (fibroblasts; 200 μg/ml, isolated cultures) of the same compound?
A: little effect

Q: And the “reduction of the number of cells compared to the control” value (fibroblasts; 600 μg/ml)?
A: approximately 50%

Q: And the “concentration with inhibiting effect on proliferation” value (fibroblasts; cell count and MTT)?
A: greater than 500 μg/ml

Q: What about the “toxic effect on cells at confluence” value (fibroblasts; up to 800 μg/ml) of the same compound?
A: no toxic effect

Q: What about the “intensity of marking of the collagen I” value [1] of the same compound?
A: strong decrease

Q: What about the “intensity of marking of the collagen II and of the aggrecan (cartilage markers)” value [1] of the same compound?
A: clear increase

Q: And the “preservation of morphology and phenotype (matrix of cartilaginous type, without collagen I)” value [2]?
A: preserving their morphology and their phenotype

Q: And the “expression of Lysyl oxidase molecules (LOX, LOXL1)” value [3]?
A: does not modify the expression of Lysyl oxidase molecules
